These results are taken from patent US9504674B2, “TrkB agonists and methods of use” (EMORY UNIVERSITY, priority 2010, dated 2016).

Assay [1] has as its target T1, TrkB (Rattus norvegicus, UniProt Q63604).
T1 construct: endogenous in cells; host or cells: primary rat cortical neurons (E17 embryos, 13 DIV)
The assay can be described thus: TrkB phosphorylation in primary rat cortical neurons (immunoblotting). Conditions: for TrkB activation (phosphorylation) compared to vehicle control: 500 nM compound, 20 min, primary rat cortical neurons, immunoblotting; for minimal concentration triggering TrkB activation (titration assay): primary cortical neurons, different doses. In kind it is cell-based. As for the experimental part:
Primary rat cortical neurons from E17 embryos (13 DIV) were treated with 500 nM various chemicals for 15 min. The neuronal cell lysates were collected and resolved on 10% SDS-PAGE. Immunoblotting was conducted with various antibodies. p-TrkB Y817 antibody was employed at 1:20000-40000 dilution.
Primary rat cortical neurons from E17 embryos (13 days in vitro (DIV)) were treated with 500 nM various chemicals for 15 min. The neuronal cell lysates were collected and resolved on 10% SDS-PAGE. Immunoblotting was conducted with various antibodies. p-TrkB Y817 antibody was employed at 1:20,000-40,000 dilution (top panel). Equal amount of TrkB was loaded in all of the samples (middle panel). P-Akt 473 ELISA analysis with the neuronal lysates (bottom panel).
7,8-dihydroxyflavone (7,8-DHF) is a small molecular TrkB agonist. Preliminary structure-activity relationship study (SAR) supports that 7,8-catechol moiety is essential for the agonistic effect by 7,8-DHF. To explore the structure-activity relationship (SAR) in depth, the TrkB stimulatory activity was examined by numerous flavonoid derivatives. The numeric positions and each ring's nomenclature are designated (FIG. 1A). Compounds were dissolved in DMSO, then diluted into […] with 1× PBS (final vehicle contains 10% DMSO/PBS) (FIG. 1B). Primary rat cortical neurons were treated with 500 nM compounds for 20 min. The cell lysates were analyzed by immunoblotting. […] Downstream activation of the TrkB target Akt was tightly correlated with TrkB activation patterns by these derivatives (FIG. 1C, bottom panel). As observed, the hydroxy groups on B ring can regulate 7,8-DHF's stimulatory activity on TrkB receptor. As 2′-hydroxy, especially 3′-hydroxy group, elevates the agonistic effect, whereas 4′-hydroxy group diminishes its stimulatory effect.
(§1) To compare the TrkB activation by these synthetic compounds, primary cortical cultures were prepared. Cortical neurons were treated with 500 nM of various compounds for 20 min and cell lysates were collected. […] Replacing the H-bond acceptor O atom with hydrogen bond donor NH abolishes its stimulatory effect. […] On the other hand, 7,8-DHF provoked TrkB activation with the minimal concentration of 100 nM (FIG. 2B, right panels). To further study 4′-DMA-7,8-DHF's kinetics on TrkB activation, primary neurons were treated for various time points. 4′-DMA-7,8-DHF swiftly activated TrkB as soon as 5 minutes following treatment. […] To compare the stimulatory effect on TrkB receptor in mouse brains, 1 mg/kg of the synthesized derivatives were injected into C57BL/6J mice. TrkB activation was monitored at different time points.
Additional compounds are listed as designated from a to m (FIG. 6A). The compounds were dissolved in DMSO, then diluted into 500 μM with 1× PBS (final vehicle contains 10% DMSO/PBS). The primary rat cortical neurons (13 DIV) were treated with 500 nM compounds for 20 min. The cell lysates were analyzed by immunoblotting. […] Moreover, p-Akt ELISA was monitored to quantitatively analyze the agonistic activities of these compounds.
In general terms: Immunoblotting shows a protein as a band on a membrane.

Assay [2] deals with T2, TrkA (Mus musculus, UniProt Q3UFB7).
T2 construct: from tissue; host or cells: brain of chronically treated C57BL/6J mice
T2 sequence (Q3UFB7 34-799): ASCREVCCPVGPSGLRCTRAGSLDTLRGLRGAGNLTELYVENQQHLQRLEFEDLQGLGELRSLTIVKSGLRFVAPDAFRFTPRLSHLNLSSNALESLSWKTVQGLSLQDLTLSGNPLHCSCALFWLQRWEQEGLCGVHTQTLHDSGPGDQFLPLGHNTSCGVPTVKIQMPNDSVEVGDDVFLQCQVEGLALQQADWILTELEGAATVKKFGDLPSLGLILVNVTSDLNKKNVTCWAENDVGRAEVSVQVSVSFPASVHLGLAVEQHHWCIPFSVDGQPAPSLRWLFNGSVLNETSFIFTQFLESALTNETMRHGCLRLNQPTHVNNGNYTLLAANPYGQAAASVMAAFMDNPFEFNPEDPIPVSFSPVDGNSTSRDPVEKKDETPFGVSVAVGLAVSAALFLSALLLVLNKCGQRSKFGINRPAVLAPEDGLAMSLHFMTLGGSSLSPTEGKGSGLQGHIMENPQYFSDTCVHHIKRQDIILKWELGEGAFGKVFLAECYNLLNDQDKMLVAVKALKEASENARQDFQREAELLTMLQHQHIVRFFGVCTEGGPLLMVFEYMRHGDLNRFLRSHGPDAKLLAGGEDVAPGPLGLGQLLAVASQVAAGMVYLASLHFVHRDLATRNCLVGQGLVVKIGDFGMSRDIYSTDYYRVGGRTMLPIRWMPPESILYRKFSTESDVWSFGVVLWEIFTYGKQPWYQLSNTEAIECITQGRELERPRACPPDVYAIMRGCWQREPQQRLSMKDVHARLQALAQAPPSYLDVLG
Briefly: TrkA activation in brain of chronically treated mice (immunoblotting p-TrkA 794). In kind it is in vivo. Particulars: 5 mg/kg oral 21 days, brain lysates. The method, then: The brain lysates from above chronically treated mice were analyzed by immunoblotting with anti-p-TrkA 794 and p-TrkB 817.
Accumulating evidence supports that BDNF plays a role in mediating therapeutic effects of antidepressants. Infusion of exogenous BDNF into hippocampus or brain stem has anti-depressant-like behavioral effect. A forced swim test is broadly used for screening of potential antidepressant drugs and is widely used to measure antidepressant activity. To explore whether 4′-DMA-7,8-DHF and 7,8-DHF have any antidepressant effect like BDNF, a forced swim test was conducted after chronic treatment of the mice for 21 days via oral injection.
BDNF/TrkB signaling plays an role in mediating antidepressants' therapeutic effects. A forced swim test is broadly used for screening of potential antidepressant drugs and is widely used to measure antidepressant activity. To explore whether imidazole flavanoid and compound i have any antidepressant effect like BDNF, a forced swim test was conducted after chronic treatment of the mice for 21 days via oral administration.

In assay [3] the test system is Akt. The assay can be described thus: Akt activation / p-Akt 473 ELISA in primary cortical neurons. In kind it is cell-based, rat. Conditions: 500 nM. The method, then:
The cell lysates (20 μg/sample) from the neurons treated with various indicated drugs were analyzed by p-Akt ELISA. The quantitative p-Akt activity in ELISA correlated with TrkB activity. Results were expressed as mean (SEM(*P<0.05, compared with the vehicle control group, Student t test, n=3).
Phospho-Akt ELISA assay by the synthetic compounds in cortical neurons. Primary cortical cultures from […] rat embryos were treated with 500 nMof various 7,8-DHF derivatives. The cell lysates were analyzed by the ELISA (left panel) (*, P<0.05; ***, P<0.001 vs vehicle, Student's t test). Different doses of 4′-DMA-7,8-DHF and 7,8-DHF were incubated with primary cortical neurons for 15 min. The cell lysates (20 μg) were analyzed with p-Akt ELISA (right panel) (*, P<0.05; **, P<0.01; ***, P<0.001 vs control; one-way ANOVA: b, P<0.01; c, P<0.001 vs 7,8-DHF at same concentration, Student's t test). […]
7,8-dihydroxyflavone (7,8-DHF) is a small molecular TrkB agonist. […] The cell lysates were analyzed by immunoblotting. […]
To compare the TrkB activation by these synthetic compounds, primary cortical cultures were prepared. […] TrkB activation was monitored at different time points.
Additional compounds are listed as designated from a to m (FIG. 6A). […] The cell lysates were analyzed by immunoblotting. […] Moreover, p-Akt ELISA was monitored to quantitatively analyze the agonistic activities of these compounds.

Assay [4] addresses T3, TrkB (Mus musculus, UniProt P15209).
T3 construct: from tissue; host or cells: brain of wild-type C57BL/6J mice
Briefly: TrkB activation in mouse brain after single oral administration (immunoblotting). Particulars: 1 mg/kg oral, C57BL/6J mice. In kind it is in vivo. The method, then: Rat primary neurons were treated with 500 nM. 4′-DMA-7,8-DHF from various time points. The neuronal lysates were analyzed with various antibodies. 4′-DMA-7,8-DHF rapidly activated TrkB and its downstream signaling cascades (left panels). […] One mg/kg of 4′-DMA-7,8-DHF and 7,8-DHF were orally administrated into C57 BL/6J mice and TrkB phosphorylation and its downstream signaling cascades including Akt and MAPK in mouse brain were analyzed by immunoblotting at various time points. TrkB activation by 4′-DMA-7,8-DHF peaked at 4 h, whereas the maximal TrkB activation by 7,8-DHF in mouse brain occurred at 1-2 h (middle panels).
1 mg/kg of various compounds were orally administrated into C57 BL/6J mice and TrkB phosphorylation and its downstream signaling cascades including Akt and MAPK in mouse brain were analyzed by immunoblotting at 2 h.
Time course assay with compound i and m in mouse brain. 1 mg/kg of compound i and m were orally administrated into C57 BL/6J mice and TrkB phosphorylation and its downstream signaling cascades including Akt and MAPK in mouse brain were analyzed by immunoblotting at various time points.
as §1
The compounds were orally injected (1 mg/kg) into C57BL/6J mice. The TrkB and its downstream signaling cascades activation at 2 h were examined after drug administration with mouse brain tissues. […] The downstream p-Akt and p-MAPK tightly coupled to p-TrkB signals.

[5] abbreviates: primary neurons, 500 nM, time course.

Values joined by “and” are separate entries in the source; they are usually repeats but may differ in a detail not shown here. Equal entries are not always repeated. “Also recorded” adds a separate entry of the source.

T1 sequence (Q63604 32-821): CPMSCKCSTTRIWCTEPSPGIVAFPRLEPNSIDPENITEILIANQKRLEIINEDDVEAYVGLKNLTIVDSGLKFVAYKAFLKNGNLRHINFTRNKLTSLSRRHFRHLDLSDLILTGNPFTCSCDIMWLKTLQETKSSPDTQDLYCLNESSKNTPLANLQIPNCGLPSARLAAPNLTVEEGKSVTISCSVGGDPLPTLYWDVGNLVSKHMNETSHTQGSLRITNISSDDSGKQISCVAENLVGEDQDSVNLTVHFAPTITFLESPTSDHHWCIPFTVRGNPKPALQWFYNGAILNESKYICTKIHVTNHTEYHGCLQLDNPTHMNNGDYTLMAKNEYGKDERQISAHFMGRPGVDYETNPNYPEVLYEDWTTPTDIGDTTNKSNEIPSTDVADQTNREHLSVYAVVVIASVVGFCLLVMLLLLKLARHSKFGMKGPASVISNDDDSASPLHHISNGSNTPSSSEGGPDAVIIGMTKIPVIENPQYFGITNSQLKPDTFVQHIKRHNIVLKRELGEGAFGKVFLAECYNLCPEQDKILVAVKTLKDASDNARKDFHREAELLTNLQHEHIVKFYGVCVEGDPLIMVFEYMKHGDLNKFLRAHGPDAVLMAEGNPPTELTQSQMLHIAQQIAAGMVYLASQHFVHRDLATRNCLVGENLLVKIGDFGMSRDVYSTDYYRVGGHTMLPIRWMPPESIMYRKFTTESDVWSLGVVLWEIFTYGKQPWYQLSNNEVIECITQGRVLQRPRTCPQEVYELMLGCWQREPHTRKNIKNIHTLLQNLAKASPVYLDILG
T3 sequence (P15209 32-821): as the sequence (Q63604 32-821) above, with M3T, T9S, T10A, I32V, K63R, G84S, T153M, I185L, T394S, N770S counted along it

Take `CN(C)c1ccc(-c2cc(=O)c3ccc(O)c(O)c3o2)cc1` [4′-DMA-7,8-DHF, 4′-dimethylamino-7,8-dihydroxyflavone]: in assay [1], the “TrkB activation (phosphorylation) compared to vehicle control” value was “strongly activated TrkB” and the “minimal concentration triggering TrkB activation (titration assay)” value is 10 nM. Further, in assay [1] (listed as compound a), the “TrkB activation (phosphorylation) compared to vehicle control” value is reported as “activated TrkB better than compounds b to d”. Besides, the “agonistic effect on TrkB relative to parental 7,8-DHF” value in assay [1] (from titration assays) is listed as “about 10 fold”. Moreover, in assay [1] (setting [5]), the “time at which TrkB signal decayed back to baseline” value was in the range of 30 to 180 min and the “time to TrkB activation following treatment” value turned out to be 5 min. Besides, in assay [2], the “TrkA activation in mouse brain after chronic treatment” value (from here on “TrkA activation in mouse brain”) is reported as “not TrkA activation”. In addition, the “Akt activation pattern over time” value in assay [3] (primary neurons, time course) is recorded as “temporally coupled to TrkB activation”. For the same molecule, in assay [4], the “duration of TrkB agonistic effect in animals compared with 7,8-DHF” value was “sustained longer in animals; also recorded: longer period of TrkB activation in mouse brain”; the “time of onset of TrkB activation in mouse brain” value is on record as 1 h; the “time of peak TrkB activation in mouse brain” value was 8 h and 4 h; the “TrkB phosphorylation in mouse brain at 2 h” value was “exhibited the strongest TrkB phosphorylation”. Moreover, in assay [4], the “TrkB activity in mouse brain at 16 h” value is on record as “partially decayed at 16 h”.
On to `O=c1cc(-c2ccccc2)oc2c(O)c(O)ccc12` [7,8-DHF, 7,8-dihydroxyflavone, reference compound], for which, in assay [1], the “TrkB activation (phosphorylation) compared to vehicle control” value is listed as “stimulated TrkB activation” and the “minimal concentration triggering TrkB activation (titration assay)” value is 100 nM. Moreover, the “TrkA activation in mouse brain” value in assay [2] is “not TrkA activation”. In addition, in assay [4], the “time of onset of TrkB activation in mouse brain” value was “approximately 2 h” and the “TrkB activity in mouse brain at 16 h” value is listed as “Elevated TrkB activity was demonstrable even at 16 h”.
On to `CN(C)c1ccc(-c2cc(=O)c3ccc4nc[nH]c4c3o2)cc1` [compound m, 8-(4-(dimethylamino)phenyl)chromeno[7,8-d]imidazol-6(1H)-one], for which, in assay [1], the “TrkB activation (phosphorylation) compared to vehicle control” value is “exhibited strong p-TrkB activity”. In assay [2], the “TrkA activation in mouse brain” value is on record as “not TrkA activation”. Moreover, the “agonistic activity by p-Akt ELISA in neurons” value in assay [3] (20 min, primary rat cortical neurons (13 DIV)) is given as “possesses the strongest effect in activating TrkB receptor”. The “TrkB phosphorylation in mouse brain at 2 h” value in assay [4] is recorded as “exhibited the strongest TrkB phosphorylation”. The “TrkB activation in mouse brain, time course, compared with compound i” value in assay [4] (various time points) is “more robust and sustained TrkB activation than compound i”.
